Experimental data: patent US20130259986A1, “COMPOSITIONS AND METHODS FOR INHIBITING PRECIPITATION OF DYES IN A BEVERAGE” (Kraft Foods Global Brands LLC, priority 2012, published 2013)

How the values were obtained:
[1] = Observation of precipitate in model solutions of azo-dye, salt, benzaldehyde and water; type: physicochemical; details: for precipitation of a single azo-dye from solutions: solutions with (1) blends of two or more salts, (2) sweetener, (3) fiber (inulin) with sodium chloride; for precipitate in a solution of the substance and water: substance and water only
Description: It was observed that many solutions fail to keep a single azo-dye species stable in the presence of electrolyte ions. For example, the azo-dye (Yellow 5, Yellow 6, or Red 40) precipitated from solutions containing the following: (1) blends of two or more salts (including potassium chloride, tripotassium phosphate, sodium chloride, and magnesium chloride) with a single azo-dye; (2) sweetener (including sucrose, fructose, and raw honey) and a single azo-dye; and (3) fiber (such as inulin) with sodium chloride and a single azo-dye.
Such precipitate is believed to be crystals of the azo-dye or possibly even co-crystals of the azo-dye with sodium chloride, sodium ions, chloride ions, or sodium and chloride ions. It is believed that the presence of an ion (not limited to sodium and/or chloride) creates an unfavorable environment for the azo-dye to exist in and causes the azo-dye to precipitate or crystallize. However, this crystallization or precipitation is not observed when levels of salt or azo-dye are below the threshold for the reaction to occur.
While wishing to not be bound by theory, a solution of benzaldehyde, salt, Red 40, and water causes precipitation through a different mechanism when compared to precipitate found from solutions of salt, an azo-dye, and water. […] Such precipitate is believed to be due the complexation of salt, Red 40, and benzaldehyde. This complexation may occur due to the thermodynamic unfavorability of all three components to exist in solution with one another. The precipitation found in this system appears to be more sediment-like rather than crystal-like precipitate found in a solution of Red 40, salt, and water. However, crystals or co-crystals may exist within the salt, Red 40, and benzaldehyde complexation and this complexation is not observed when levels of salt, azo-dye, or benzaldehyde are below the threshold for the reaction to occur.

[2] = Example 5: precipitation from 90× electrolyte beverage product with 0.45 wt % Red 40 and added benzaldehyde solution or propylene glycol; type: physicochemical
Description: A 90× electrolyte beverage product was made without flavor containing 0.45 wt % Red 40, and a 3.0% benzaldehyde solution was made with propylene glycol. The benzaldehyde solution was then added back to the flavorless base at various levels up to 10%. As a control, the same variants were made without benzaldehyde solution, but with 100% propylene glycol, to confirm that any precipitation was directly due to the benzaldehdye and not propylene glycol. The formulations are as follows: […]

[3] = 4 % added to 90 % electrolyte base (0.45 wt % Red 40), 0.12% benzaldehyde for the benzaldehyde solution
[4] = 6 % added to 90 % electrolyte base (0.45 wt % Red 40), 0.18% benzaldehyde for the benzaldehyde solution
[5] = 8 % added to 90 % electrolyte base (0.45 wt % Red 40), 0.24% benzaldehyde for the benzaldehyde solution
[6] = 10 % added to 90 % electrolyte base (0.45 wt % Red 40), 0.3% benzaldehyde for the benzaldehyde solution

Structure (SMILES)	precipitate / complexation in a solution of salt, azo-dye, benzaldehyde, and water [1]	precipitation of a single azo-dye from solutions [1]	precipitate in a solution of the substance and water [1]	Observations after 2 months at 70 F. (room temp) ([2]; 0.1 % added to 90 % electrolyte base (0.45 wt % Red 40))	Observations after 2 months at 70 F. (room temp) ([2]; 0.25 % added to 90 % electrolyte base (0.45 wt % Red 40))	Observations after 2 months at 70 F. (room temp) ([2]; 0.5 % added to 90 % electrolyte base (0.45 wt % Red 40))	Observations after 2 months at 70 F. (room temp) ([2]; 1 % added to 90 % electrolyte base (0.45 wt % Red 40))	Observations after 2 months at 70 F. (room temp) ([2]; 2 % added to 90 % electrolyte base (0.45 wt % Red 40))	Observations after 2 months at 70 F. (room temp) [2, 3]	Observations after 2 months at 70 F. (room temp) [2, 4]	Observations after 2 months at 70 F. (room temp) [2, 5]	Observations after 2 months at 70 F. (room temp) [2, 6]	benzaldehyde content at which the system is free of precipitation ([2]; 90× electrolyte concentrate with 0.45 wt % Red 40, stored for up to 2 months)
CC(O)CO (stereo not drawn) [PG 100%, Propylene Glycol]				No precipitation	No precipitation	No precipitation	No precipitation	No precipitation	No precipitation	No precipitation	No precipitation	No precipitation	
O=Cc1ccccc1 [benzaldehyde]			free of precipitate						formed precipitation	formed precipitation	formed precipitation within hours	formed precipitation within hours	up to 0.11%

Second part, led by results:

precipitate / complexation in a solution of salt, azo-dye, benzaldehyde, and water [1]	precipitation of a single azo-dye from solutions [1]	precipitate in a solution of the substance and water [1]	Structure (SMILES)	Observations after 2 months at 70 F. (room temp) ([2]; 0.1 % added to 90 % electrolyte base (0.45 wt % Red 40))	Observations after 2 months at 70 F. (room temp) ([2]; 0.25 % added to 90 % electrolyte base (0.45 wt % Red 40))	Observations after 2 months at 70 F. (room temp) ([2]; 0.5 % added to 90 % electrolyte base (0.45 wt % Red 40))	Observations after 2 months at 70 F. (room temp) ([2]; 1 % added to 90 % electrolyte base (0.45 wt % Red 40))	Observations after 2 months at 70 F. (room temp) ([2]; 2 % added to 90 % electrolyte base (0.45 wt % Red 40))	Observations after 2 months at 70 F. (room temp) [2, 3]	Observations after 2 months at 70 F. (room temp) [2, 4]	Observations after 2 months at 70 F. (room temp) [2, 5]	Observations after 2 months at 70 F. (room temp) [2, 6]	benzaldehyde content at which the system is free of precipitation ([2]; 90× electrolyte concentrate with 0.45 wt % Red 40, stored for up to 2 months)
no complexations were observed	precipitated	free of precipitate	O=C(O)c1nn(-c2ccc(S(=O)(=O)O)cc2)c(O)c1N=Nc1ccc(S(=O)(=O)O)cc1 [Yellow 5]										
no complexations were observed	precipitated	free of precipitate	O=S(=O)([O-])c1ccc(N=Nc2c(O)ccc3cc(S(=O)(=O)[O-])ccc23)cc1.[Na+].[Na+] [Yellow 6]										
not stable and produces precipitate	precipitated	free of precipitate	COc1cc(S(=O)(=O)[O-])c(C)cc1N=Nc1c(O)ccc2cc(S(=O)(=O)[O-])ccc12.[Na+].[Na+] [Red 40]										
